Experimental data taken from patent US8664387B2, “Pyridoquinazolinone M1 receptor positive allosteric modulators” (Merck Sharp & Dohme Corp., priority 2009, dated 2014).

Target: T1, acetylcholine muscarinic M1 receptor (Homo sapiens, UniProt P11229)
T1 construct: expressed in transfected cells; host or cells: CHOnfat cells (CHOnfat/hM1; geneticin selection)
T1 sequence (P11229 1-460): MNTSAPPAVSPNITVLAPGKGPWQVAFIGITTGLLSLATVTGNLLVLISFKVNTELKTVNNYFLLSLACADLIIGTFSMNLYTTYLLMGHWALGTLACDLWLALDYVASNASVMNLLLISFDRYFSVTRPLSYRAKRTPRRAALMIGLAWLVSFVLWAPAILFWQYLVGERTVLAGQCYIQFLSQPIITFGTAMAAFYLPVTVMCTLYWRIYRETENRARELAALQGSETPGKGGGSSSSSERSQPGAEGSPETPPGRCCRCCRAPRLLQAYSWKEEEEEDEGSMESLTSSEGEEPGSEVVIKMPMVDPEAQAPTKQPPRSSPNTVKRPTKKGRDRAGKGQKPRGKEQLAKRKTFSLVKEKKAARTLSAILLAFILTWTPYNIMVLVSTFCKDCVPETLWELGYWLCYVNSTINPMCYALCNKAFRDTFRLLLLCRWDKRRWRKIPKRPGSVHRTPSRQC
Assay: muscarinic FLIPR calcium assay, M1 positive allosteric modulation
Type: cell-based
Details: CHOnfat/hM1 cells, FLIPR intracellular Ca2+, 4 min preincubation, then EC20 acetylcholine (3 nM final); read-out: IP Value (inflection point)
Description: The assay studies the effect of one or several concentrations of test compounds on basal or acetylcholine-stimulated Ca^2+ levels using FLIPR.
Compounds are prepared and subjected to a preincubation period of 4 min. Thereafter, a single EC20 concentration of acetylcholine is added to each well (3 nM final). The intracellular Ca^2+ level of each sample is measured and compared to an acetylcholine control to determine any modulatory activity.
Cells: CHOnfat/hM1, hM2, hM3 or hM4 cells are plated 24 hr before the assay at a density of 18,000 cells/well (100 μL) in a 384 well plate. CHOnfat/hM1 and CHOnfat/hM3 Growth Medium: 90% DMEM (Hi Glucose); 10% HI FBS; 2 mM L-glutamine; 0.1 mM NEAA; Pen-Strep; and 1 mg/ml Geneticin, are added. For M2Gqi5CHOnfat and M4Gqi5CHOnfat cells, an additional 600 ug/ml hygromycin is added.
Equipment: 384 well plate, 120 μL addition plate; 96-well Whatman 2 ml Uniplate Incubator, 37° C., 5% CO2; Skatron EMBLA-384 Plate Washer; Multimek Pipetting System; Genesis Freedom 200 System; Mosquito System; Temo Nanoliter Pipetting System; and FLIPR^384 Fluorometric Imaging Plate Reader System are used.
Buffers. Assay Buffer: Hanks Balanced Salt Solution, with 20 mM Hepes, 2.5 mM Probenecid (Sigma P-8761) first dissolved in 1 N NaOH, 1% Bovine Serum Albumin (Sigma A-9647). Dye Loading Buffer: Assay Buffer plus 1% Fetal Bovine Serum and Fluo-4AM/Pluronic Acid Mixture. 2 mM Fluo-4AM ester stock in DMSO (Molecular Probes F-14202) Concentration of 2 μM in buffer for a final concentration of 1 μM in Assay. 20% Pluronic Acid Solution stock, with concentration of 0.04% in Buffer, 0.02% in Assay.
65 μL of 2 mM Fluo-4AM are mixed with 130 μL of 20% Pluronic Acid. The resulting solution and 650 μL FBS is added to the assay buffer for a total volume of 65 mL. Positive Controls: 4-Br-A23187: 10 mM in DMSO; final concentration 10 μM. Acetylcholine: 10 mM in water, working stock at both 20 μM and 30 µM in assay buffer, final concentration of 10 μM. This is used to check the maximum stimulation of the CHOK1/hM1 cells. 20 μM (2×) acetylcholine is added in the preincubation part of the assay, and the 30 μM (3×) stock is added in the second part. (EC20)Acetylcholine: 10 mM in water, working stock of 9 nM (3×), and final concentration in assay is 3 nM. This is used after the preincubation with test compounds. Addition of the EC20 Acetylcholine to each well with a test compound will ascertain any modulator activity. 24 wells contain 3 nM Acetylcholine alone as a control.
Determining Activity of Putative Compounds: • Screening Plate: Compounds are titrated in 96-well plates (columns 2-11), 100% DMSO, started at a concentration of 15 mM (150× stock concentration), and 3-fold serial dilutions using Genesis Freedom200 System. Four 96-well plates are combined into a 384-well plate using Mosquito Nanoliter Pipetting System by transferring 1 μl of serial diluted compounds to each well, and 1 mM acetylcholine (100× stock concentration) were added as a control. Using Temo, 49 μl assay buffer is added to each well of the 384-well plate right before assay.
In a 96-well Whatman 2 ml Uniplate, 9 nM Acetylcholine (3×) is pipetted into wells corresponding to the screening compounds, and into control wells. The 30 μM acetylcholine control (3×) is added into control wells, and the 3× agonist plate is transferred into a 384 well plate.
Cells are washed three times with 100 μL of buffer, leaving 30 μL of buffer in each well. Using Multimek, 30 μL of Dye Loading Buffer is added into each well and incubated at 37° C., 5% CO2 for up to one hr.
After 60 min, the cells are washed three times with 100 μL of buffer, leaving 30 μL of buffer in each well. The cell plate, screening plate, and agonist addition plates are placed on the platform in the FLIPR and the door closed. A signal test to check background fluorescence and basal fluorescence signal is performed. Laser intensity is adjusted if necessary. […]

| EC50 | SMILES |
| --- | --- |
| 130 nM | CCC(O)c1ccc(Cc2cc3c(=O)n([C@H]4CCCC[C@@H]4O)cnc3c3ccncc23)cc1 (stereo partly drawn) [Example 12, 3-[(1S,2S)-2-Hydroxycyclohexyl]-6-[4-(1-hydroxypropyl)benzyl]pyrido[3,4-h]quinazolin-4(3H)-one] |
| 36 nM | O=Cc1ccc(Cc2cc3c(=O)n([C@H]4CCCC[C@@H]4O)cnc3c3ccncc23)cc1 [Example 10, 4-({3-[(1S,2S)-2-Hydroxycyclohexyl]-4-oxo-3,4-dihydropyrido[3,4-h]quinazolin-6-yl}methyl)benzaldehyde] |
| 91 nM | O=c1c2cc(Cc3ccc(N4CCOCC4)cc3)c3cnccc3c2ncn1[C@H]1CCCC[C@@H]1O [Example 13, 3-[(1S,2S)-2-Hydroxycyclohexyl]-6-(4-morpholin-4-ylbenzyl)pyrido[3,4-h]quinazolin-4(3H)-one] |
| 41 nM | Cc1ccc(Cc2cc3c(=O)n([C@H]4CCCC[C@@H]4O)cnc3c3ccncc23)cn1 [Example 4, 3-[(1S,2S)-2-Hydroxycyclohexyl]-6-[(6-methylpyridin-3-yl)methyl]pyrido[3,4-h]quinazolin-4(3H)-one] |
| 6 nM | Cn1cc(-c2ccc(Cc3cc4c(=O)n([C@H]5CCCC[C@@H]5O)cnc4c4ccncc34)cn2)cn1 [Example 8, 3-[(1S,2S)-2-Hydroxycyclohexyl]-6-{[6-(1-methyl-1H-pyrazol-4-yl)pyridine-3-yl]methyl}pyrido[3,4-h]quinazolin-4(3H)-one] |
| 29 nM | O=c1c2cc(Cc3ccc(-n4cccn4)nc3)c3ncccc3c2ncn1[C@H]1CCCC[C@@H]1O [Example 7, 3-[(1S,2S)-2-Hydroxycyclohexyl]-6-{[6-(1H-pyrazol-1-yl)pyridine-3-yl]methyl}pyrido[2,3-h]quinazolin-4(3H)-one] |
| 176 nM | O=c1c2cc(Cc3ccc(Cl)nc3)c3cnccc3c2ncn1[C@H]1CCOC[C@@H]1O [Example 2, 6-[(6-Chloropyridin-3-yl)methyl]-3-[(3R,4S)-3-hydroxytetrahydro-2H-pyran-4-yl]pyrido[3,4-h]quinazolin-4(3H)-one] |
| 110 nM | COc1ccc(Cc2cc3c(=O)n([C@H]4CCCC[C@@H]4O)cnc3c3ccncc23)cn1 [Example 5, 3-[(1S,2S)-2-Hydroxycyclohexyl]-6-[(6-methoxypyridin-3-yl)methyl]pyrido[3,4-h]quinazolin-4(3H)-one] |
| 92 nM | CC(O)c1ccc(Cc2cc3c(=O)n([C@H]4CCCC[C@@H]4O)cnc3c3ccncc23)cc1 (stereo partly drawn) [Example 11, 3-[(1S,2S)-2-Hydroxycyclohexyl]-6-[4-(1-hydroxyethyl)benzyl]pyrido[3,4-h]quinazolin-4(3H)-one] |
| 64 nM | O=c1c2cc(Cc3ccc(-c4cnccn4)nc3)c3cnccc3c2ncn1[C@H]1CCCC[C@@H]1O [Example 9, 3-[(1S,2S)-2-Hydroxycyclohexyl]-6-[(6-pyrazin-2-ylpyridin-3-yl)methyl]pyrido[3,4-h]quinazolin-4(3H)-one] |
| 851 nM | Cc1cc(Cc2cc3c(=O)n([C@H]4COCC[C@@H]4O)cnc3c3cccnc23)ccn1 [Example 14, 3-[(3S,4S)-4-Hydroxytetrahydro-2H-pyran-3-yl]-6-[(2-methylpyridin-4-yl)methyl]pyrido[2,3-h]quinazolin-4(3H)-one] |
| 38 nM | O=c1c2cc(Cc3ccc(Cl)nc3)c3cnccc3c2ncn1[C@H]1CCCC[C@@H]1O [Example 1, 6-[(6-Chloropyridin-3-yl)methyl]-3-[(1S,2S)-2-hydroxycyclohexyl]pyrido[3,4-h]quinazolin-4(3H)-one] |
| 71 nM | CSc1ccc(Cc2cc3c(=O)n([C@H]4CCCC[C@@H]4O)cnc3c3ccncc23)cn1 [Example 6, 3-[(1S,2S)-2-Hydroxycyclohexyl]-6-{[6-(methylthio)pyridine-3-yl]methyl}pyrido[3,4-h]quinazolin-4(3H)-one] |
